These are literature values, as cited in article PMC6095934, “Impact of rifampicin-inhibitable transport on the liver distribution and tissue kinetics of erlotinib assessed with PET imaging in rats” (EJNMMI Research, 2018).

Usually Ki stands for the equilibrium dissociation constant of an inhibitor or competing ligand from its target. As usually defined, the IC50 is the concentration that inhibits the measured activity by half.

For data set [1] the following is noted: NSCLC patients, 150 mg erlotinib once daily.
Data set [2] relates to human OATP2B1. The note with it: in vitro, transfected cells.
In data set [3] the test system is MRP2 (ABCC2). Also noted: method as in PMID 18723475.
In data set [4] the test system is OAT1. Set-up: method as in PMID 21088257.
For another data set, the system named is OAT2. Set-up: method as in PMID 21088257.
Data set [5] has as its system OAT3. Set-up: method as in PMID 21088257.
Data set [6] has as its system OCT2. Set-up: method as in PMID 21088257, PMID 26976869.
Data set [7] has as its system organic anion transporter 2 (OAT2, SLC22A7). The note with it: in vitro.
Data set [8] concerns MRP2 (ABCC2). Also noted: method as in PMID 23440558. The note with it: canalicular side of hepatocytes.
The subject of data set [9] is OAT1.
The subject of data set [10] is OAT3.
For data set [11], the system named is OCT2. Set-up: method as in PMID 21088257, PMID 26976869. The source holds these as a separate data set.
The next data set relates to OATP4C1. Also noted: method as in PMID 28550055.
Data set [12] deals with human OATP2B1.
The subject of data set [13] is organic cation transporter 1 (OCT1, SLC22A1).

As to `C#Cc1cccc(Nc2ncnc3cc(OCCOC)c(OCCOC)cc23)c1` [erlotinib, Erlotinib], in data set [1], the “interpatient variability in area under the curve (AUC)” value is on record as 51% and the “interpatient variability in trough plasma concentrations” value is 64%. The “transport by human OATP2B1” value with human OATP2B1 [2] is recorded as “specifically transported”. Also, the “substrate of MRP2” value in the data set with MRP2 (ABCC2) [3] is on record as “not a substrate”. Besides, the “transport by OAT1” value in the data set on OAT1 [4] was “neither transported”. Besides, the “transport by OAT2” value with OAT2 is listed as “neither transported”. For the same compound, in the data set with OAT3 [5], the “substrate of OAT3” value was “substrate”. The “substrate of OCT2” value in the data set with OCT2 [6] is recorded as “substrate”.
On to `CO[C@H]1/C=C/O[C@@]2(C)Oc3c(C)c(O)c4c(O)c(c(/C=N/N5CCN(C)CC5)c(O)c4c3C2=O)NC(=O)/C(C)=C\C=C\[C@H](C)[C@H](O)[C@@H](C)[C@@H](O)[C@@H](C)[C@H](OC(C)=O)[C@@H]1C` [rifampicin, Rifampicin], for which the values for the Ki (at rOATP1B2; on rOATP1A1; in [13]) were 0.79 µM, 18 µM and more than 100 µM, respectively. The “inhibition of OAT2” value in data set [7] is “inhibited neither”. Moreover, the “inhibition of MRP2” value in the data set on MRP2 (ABCC2) [8] was “potent inhibitor”. The “inhibition of OAT1” value in the data set with OAT1 [9] is reported as “inhibitor”. In the data set on OAT3 [10], the “inhibition of OAT3” value is recorded as “not”. Besides, in the data set with OCT2 [11], the “inhibition of OCT2” value is on record as “not inhibited”. Further, the “inhibition of OATP4C1” value in the data set on OATP4C1 is on record as “not an inhibitor”. Besides, the values for the IC50 in the data set on human OATP1B1, with human OATP1B3 and in the data set on human OATP2B1 [12] were 1.9 ± 0.16 µM, 6.4 ± 0.5 µM and 91 ± 14.6 µM, respectively.
